{
  "source": "patent US20100003217A1",
  "about": "“Compounds and Pharmaceutical Compositions for the Treatment of Viral Infections” (priority 2008, published 2010)",
  "key": {"[1]": {"system": "monkey primary hepatocytes", "assay": "Metabolic disposition of [^14C]-Compound 1 and [^14C]-2′-C-methyl guanosine in monkey primary hepatocytes (incubation medium, cellular extracts, nucleotide levels)", "type": "in vitro ADME, Cynomolgus monkey", "conditions": "for decrease in Compound 1 medium levels: monkey hepatocytes; for decrease in Compound 1 medium levels / % Residual [^14C]-Compound 1 in incubation medium: 10 μM", "experimental": "(§1) Primary hepatocytes: Freshly isolated cells from animal and human liver were obtained in suspension on ice. Cells were pelleted by centrifugation at 70-75×g (rat) or 95-90×g (monkey and human) and resuspended at 0.8 million cells per mL of platting medium (William's E supplemented with 5% FBS, 0.5% penicillin-streptomycin, 1% L-glutamine, 4 μg/mL insulin and 1 μM dexamethasone). Multi-well collagen I-coated plates (rat tail collagen type I; 12- or 6-well) were then seeded by addition of 1 mL (12-well; 0.8 million cells/well) or 2 mL (6-well; 1.6 million cells/well) of cell suspension. The plates were gently shaken to evenly distribute the cells and placed in an incubator at 37° C. for approximately 4 to 6 hours to allow cells to attach. Once cells were attached, the platting medium was removed and replaced with hepatocyte culture medium (William's E supplemented with penicillin-streptomycin, 1% L-glutamine, 1% insulin-transferrin-selenium and 0.1 μM dexamethasone). Cells were left overnight in an incubator at 37° C. to acclimatize to culture and the medium.\n(§2) Hepatocyte incubations with radiolabeled Compound 1 and 2′-C-methyl guanosine, both labeled in the C-8 position of the guanine moiety, were conducted at a final volume of 2.0 mL hepatocyte culture medium/well ([…]). Culture medium from overnight incubation of cells was removed and replaced with fresh medium, pre-warmed to 37° C., containing 1 or 10 μM [^14C]-Compound 1 ([…]) or [^14C]-2′-C-methyl guanosine (127 DPM/μmol) from a stock solution in DMSO (final DMSO concentration was 0.1%) or 50% ethanol (final ethanol concentration was 0.2%). After 1, 4, 8 and 24 hours, 0.5-1.0 mL of incubation medium was removed and stored at −20° C. until analysis (described below). The remaining medium was discarded and cell monolayers were carefully washed two times with ice-cold PBS. Following the last wash, all PBS was carefully removed and 1.0 mL of extraction solution (ice-cold 70% methanol) added. Cells were scrapped off and suspended in the extraction solution, transferred to 2 mL polypropylene microfuge tubes and intracellular contents extracted overnight at −20° C.\n(§3) Preliminary identification of putative metabolites was conducted by comparing the retention time of observed metabolites in incubation medium and cellular extracts with retention times obtained with chemically synthesized standards using the chromatography conditions described below. Further identification of 2′-C-methyl guanosine nucleotides (mono-, di- and triphosphate) was carried out by incubating cellular extract samples with alkaline phosphatase (10 units for 60 min at 37° C.) and comparing the HPLC retention times of the resulting nucleosides with that of authentic 2′-C-methyl guanosine.\n(§4) Cellular extracts were prepared by centrifugation at 16,000 RCF using an Eppendorf microcentrifuge (Eppendorf, Model 5415D) for 10 min to remove cellular debris. An aliquot of 5-10 μL of the supernatant was added to 5 mL of EcoLite™ (MP, Irvine, Calif.) liquid scintillation cocktail and radioactivity measured by liquid scintillation counting (LSC) using a Beckman Coulter LS6500 multipurpose liquid scintillation counter (Beckman Instruments, Fullerton, Calif.). The remaining sample was then dried using a Labconco refrigerated centrivap concentrator (Labconco, Kansas City, Mo.). Dry extracts were reconstituted in 120 μL of HPLC-grade water and centrifuged at 16,000 RCF using an Eppendorf microcentrifuge for 10 min. Prior to HPLC analysis (described below), radioactivity of the concentrated extracts was measured by LSC using 5 μL aliquots. Extraction recovery was then determined by comparing total radioactivity in extracts before and after drying. The remaining extract was then analyzed by HPLC with online radioactivity detection using a Flow Scintillation Analyzer Radiomatic™ 515TR. Radioactivity in the separated components was quantified by integrating the peaks using Flo-One™ Software (Perkin Elmer Life Sciences). […]"}, "[2]": {"system": "human primary hepatocytes", "assay": "Metabolic disposition of [^14C]-Compound 1 and [^14C]-2′-C-methyl guanosine in human primary hepatocytes (incubation medium, cellular extracts, nucleotide levels)", "type": "in vitro ADME", "experimental": "as §1, §2, §3, §4"}},
  "note": "Several values for one entry are separate records, joined by “and”; a condition that tells them apart may be missing. Identical values can stand only once.",
  "data": [
    {"smiles": "CC(C)(CO)C(=O)SCCOP(=O)(NCc1ccccc1)OC[C@H]1O[C@@H](n2cnc3c(=O)[nH]c(N)nc32)[C@](C)(O)[C@@H]1O", "note": "(mixture of isomers) [Compound 1, 3-hydroxy-2,2-dimethyl-thiopropionic acid S-(2-{[(2R,3R,4R,5R)-5-(2-amino-6-oxo-1,6-dihydro-purin-9-yl)-3,4-dihydroxy-4-methyl-tetrahydro-furan-2-ylmethoxy]-benzylamino-phosphoryloxy}-ethyl) ester]", "values": [
      {"measurement": "metabolites observed in cellular extracts (% of total radioactivity)", "setting": "[1]; monkey hepatocytes (Cy230, Cy234), 10 μM [^14C]-Compound 1, 8 h", "result": "BLD"},
      {"measurement": "metabolites observed in cellular extracts (% of total radioactivity)", "setting": "[1]; monkey hepatocytes (Cy230, Cy234), 10 μM [^14C]-Compound 1, 24 h", "result": "undetected and BLD"},
      {"measurement": "metabolites observed in cellular extracts (% of total radioactivity)", "setting": "[1]; monkey hepatocytes (Cy234), 10 μM [^14C]-Compound 1, 4 h", "result": 3.03, "unit": "%"},
      {"measurement": "decrease in Compound 1 medium levels", "setting": "[1]; 8 hours", "result": "about 40%"},
      {"measurement": "decrease in Compound 1 medium levels", "setting": "[1]; 24 hours", "result": 77, "unit": "%"},
      {"measurement": "% Residual [^14C]-Compound 1 in incubation medium", "setting": "[1]; monkey primary hepatocytes (n=2), 0 h", "result": "97% and 91%"},
      {"measurement": "% Residual [^14C]-Compound 1 in incubation medium", "setting": "[1]; monkey primary hepatocytes (n=2), 1 h", "result": "95% and 67%"},
      {"measurement": "% Residual [^14C]-Compound 1 in incubation medium", "setting": "[1]; monkey primary hepatocytes (n=2), 8 h", "result": "63% and 61%"},
      {"measurement": "% Residual [^14C]-Compound 1 in incubation medium", "setting": "[1]; monkey primary hepatocytes (n=2), 24 h", "result": "16% and 31%"},
      {"measurement": "% Residual [^14C]-Compound 1 in incubation medium", "setting": "[1]; monkey primary hepatocytes, 4 h", "result": 66, "unit": "%"},
      {"measurement": "metabolites observed in cellular extracts (% of total radioactivity)", "setting": "[2]; human hepatocytes (Hu759, Hu775), 10 μM [^14C]-Compound 1, 1 h", "result": "31.1% and 23.9%"},
      {"measurement": "metabolites observed in cellular extracts (% of total radioactivity)", "setting": "[2]; human hepatocytes (Hu759, Hu775), 10 μM [^14C]-Compound 1, 4 h", "result": "8.48% and 6.96%"},
      {"measurement": "metabolites observed in cellular extracts (% of total radioactivity)", "setting": "[2]; human hepatocytes (Hu759, Hu775), 10 μM [^14C]-Compound 1, 24 h", "result": "1.38% and 1.59%"},
      {"measurement": "metabolites observed in cellular extracts (% of total radioactivity)", "setting": "[2]; human hepatocytes (Hu775), 1 μM [^14C]-Compound 1, 1 h", "result": 19.9, "unit": "%"},
      {"measurement": "metabolites observed in cellular extracts (% of total radioactivity)", "setting": "[2]; human hepatocytes (Hu775), 1 μM [^14C]-Compound 1, 8 h", "result": 4.07, "unit": "%"},
      {"measurement": "metabolites observed in cellular extracts (% of total radioactivity)", "setting": "[2]; human hepatocytes (Hu775), 1 μM [^14C]-Compound 1, 24 h", "result": 2.78, "unit": "%"},
      {"measurement": "decrease in Compound 1 medium levels", "setting": "[2]; human hepatocytes, 10 μM, 24 hours", "result": 38, "unit": "%"},
      {"measurement": "% Residual [^14C]-Compound 1 in incubation medium", "setting": "[2]; human primary hepatocytes (n=1), 1 μM, 0 h", "result": 97, "unit": "%"},
      {"measurement": "% Residual [^14C]-Compound 1 in incubation medium", "setting": "[2]; human primary hepatocytes (n=1), 1 μM, 1 h", "result": 100, "unit": "%"},
      {"measurement": "% Residual [^14C]-Compound 1 in incubation medium", "setting": "[2]; human primary hepatocytes (n=1), 1 μM, 8 h", "result": 78, "unit": "%"},
      {"measurement": "% Residual [^14C]-Compound 1 in incubation medium", "setting": "[2]; human primary hepatocytes (n=1), 1 μM, 24 h", "result": 51, "unit": "%"},
      {"measurement": "% Residual [^14C]-Compound 1 in incubation medium", "setting": "[2]; human primary hepatocytes (n=2), 10 μM, 0 h", "result": "97% and 98%"},
      {"measurement": "% Residual [^14C]-Compound 1 in incubation medium", "setting": "[2]; human primary hepatocytes (n=2), 10 μM, 1 h", "result": "94% and 97%"},
      {"measurement": "% Residual [^14C]-Compound 1 in incubation medium", "setting": "[2]; human primary hepatocytes (n=2), 10 μM, 4 h", "result": 91, "unit": "%"},
      {"measurement": "% Residual [^14C]-Compound 1 in incubation medium", "setting": "[2]; human primary hepatocytes (n=2), 10 μM, 8 h", "result": "84% and 79%"},
      {"measurement": "% Residual [^14C]-Compound 1 in incubation medium", "setting": "[2]; human primary hepatocytes (n=2), 10 μM, 24 h", "result": "63% and 60%"}
    ]},
    {"smiles": "CC(C)(CO)C(=O)SCCOP(N)(=O)OC[C@H]1O[C@@H](n2cnc3c(=O)[nH]c(N)nc32)[C@](C)(O)[C@@H]1O", "note": "(mixture of isomers) [Compound 3, {9-[(2R)2-C-methyl-β-D-ribo-furanosyl]-guanin}-5′-yl-O-(hydroxy-tert-butyl-S-acyl-2-thioethyl) phosphoramidate]", "values": [
      {"measurement": "metabolites observed in medium (% of total radioactivity)", "setting": "[1]; monkey hepatocytes (lot Cy234), 10 μM [^14C]-Compound 1, 4 h", "result": "BLD"},
      {"measurement": "metabolites observed in medium (% of total radioactivity)", "setting": "[1]; monkey hepatocytes (lots Cy230, Cy234), 10 μM [^14C]-Compound 1, 0 h", "result": "BLD"},
      {"measurement": "metabolites observed in medium (% of total radioactivity)", "setting": "[1]; monkey hepatocytes (lots Cy230, Cy234), 10 μM [^14C]-Compound 1, 1 h", "result": "BLD"},
      {"measurement": "metabolites observed in medium (% of total radioactivity)", "setting": "[1]; monkey hepatocytes (lots Cy230, Cy234), 10 μM [^14C]-Compound 1, 24 h", "result": "3.1% and 0.9%"}
    ]}
  ]
}
